Activity calls are given as the source filed them. The rule behind the calls is not given here. Bridge positions count the residues as written; N and C are the ends. Square brackets hold non-standard residues; d marks the D form. Peptide text beside a SMILES is read from it. AllylGly = C=CC[C@H](N)C(=O)O
Key:
Apelin receptor [1] = biological target: T1, Apelin receptor (Homo sapiens, UniProt P35414); test: Agonist activity at human APJ expressed in HEK293 cell membrane assessed as recruitment of PDZ-RhoGEF Galpha12 to cell membrane by BRET-based G protein dissociation assay; type: functional
T1 sequence (P35414 whole entry): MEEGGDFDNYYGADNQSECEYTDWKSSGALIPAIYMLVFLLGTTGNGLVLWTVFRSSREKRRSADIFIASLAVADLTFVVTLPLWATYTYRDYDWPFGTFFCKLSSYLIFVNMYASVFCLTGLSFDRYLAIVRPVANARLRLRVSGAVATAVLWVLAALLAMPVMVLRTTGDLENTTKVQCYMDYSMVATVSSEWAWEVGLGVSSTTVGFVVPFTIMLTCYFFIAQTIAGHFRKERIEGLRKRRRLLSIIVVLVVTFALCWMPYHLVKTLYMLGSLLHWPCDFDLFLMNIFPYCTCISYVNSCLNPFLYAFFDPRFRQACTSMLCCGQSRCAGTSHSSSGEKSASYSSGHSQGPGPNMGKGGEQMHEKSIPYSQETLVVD

[2] = biological target: T2, Apelin receptor (Homo sapiens) (UniProt P35414); test: Agonist activity at human APJ expressed in HEK293 cells assessed as maximal efficacy for dissociation of G alphai1 from the G beta gamma subunit by BRET-based G protein dissociation assay relative to control; type: functional, cell-based; conditions: filed as agonist
T2 sequence (whole entry): T1 sequence (P35414 whole entry)

[3] = biological target: T2, Apelin receptor (Homo sapiens); test: Agonist activity at human APJ expressed in HEK293 cell membrane assessed as maximal efficacy for recruitment of PDZ-RhoGEF Galphai1 to cell membrane by BRET-based G protein dissociation assay relative to control; type: functional
[4] = biological target: T2, Apelin receptor (Homo sapiens); test: Agonist activity at human APJ expressed in HEK293 cell membrane assessed as maximal efficacy for recruitment of beta-arrestin2 to receptor by BRET-based beta-arrestin2 assay relative to control; type: functional; conditions: filed as agonist
Apelin receptor [5] = biological target: T1, Apelin receptor; test: Displacement of [125I]-[Nle75,Tyr77][Pyr1]-Ape13 from YFP-tagged human APJ expressed in HEK293 cell membranes assessed as inhibition constant incubated for 1 hr by scintillation counting method
Rattus norvegicus [6] = test: Hypotensive effect in Sprague-Dawley rat assessed as decrease in blood pressure at 19.6 to 65 nmol/kg, iv relative to control; type: functional; conditions: dose 19.6-65 nmol/kg
[7] = Stability in Sprague-Dawley rat plasma assessed as half life measured upto 24 hrs by UPLC-MS analysis; type: ADME, cell-free
Rattus norvegicus [8] = test: Cardioprotective activity in Sprague-Dawley rat assessed as effect on left ventricular fractional shortening at 2 micromol/kg, sc after 3 hrs by echocardiography relative to control; type: functional; conditions: dose 2 µmol/kg
Rattus norvegicus [9] = test: Cardioprotective activity in Sprague-Dawley rat assessed as effect on left ventricular fractional shortening at 0.2 micromol/kg, sc after 3 hrs by echocardiography; type: functional, organism-based; conditions: dose 0.2 µmol/kg
Rattus norvegicus [10] = test: Cardioprotective activity in Sprague-Dawley rat assessed as effect on cardiac output in sprague-dawley rat at 2 micromol/kg, sc after 3 hrs by echocardiography relative to control; type: functional; conditions: dose 2 µmol/kg
[11] = Stability in Sprague-Dawley rat plasma at 3 mg/kg, iv upto 2 hrs by LC/MS-MS analysis; type: ADME, organism-based; conditions: in vivo
[12] = AUC in Sprague-Dawley rat plasma at 3 mg/kg, iv by LC/MS-MS analysis; type: ADME, organism-based; set-up: dose 3 mg/kg; conditions: in vivo

Row | Compound | Emax [2] [%] | Emax ([3]; filed as agonist) [%] | Emax [4] [%] | Ki (Apelin receptor [5]) [µM] | Activity (Rattus norvegicus [6]) [mmHg] | other results
1 | CCCC[C@H](NC(=O)[C@@H]1CCCN1C(=O)CNC(=O)[C@H](CCCCN)NC(=O)[C@@H]1CCN(S(=O)(=O)c2ccccc2[N+](=O)[O-])C/C=C/C[C@H](NC(=O)[C@H](CCCNC(=N)N)NC(=O)[C@@H]2CCC(=O)N2)C(=O)N[C@@H](CCCNC(=N)N)C(=O)N[C@@H](CC(C)C)C(=O)N[C@@H](CO)C(=O)N1)C(=O)N1CCC[C@H]1C(=O)N[C@@H](Cc1ccccc1)C(=O)O | 102 | 92 | 98 | – | – | –
2 | CC(C)C[C@@H]1NC(=O)[C@H](CCCNC(=N)N)NC(=O)[C@@H](N)C/C=C\C[C@@H](C(=O)N[C@@H](CCCCN)C(=O)NCC(=O)N2CCC[C@H]2C(=O)N[C@@H](C)C(=O)O)NC(=O)[C@H](CO)NC1=O (H-[AllylGly]RLS[AllylGly]KGPA-OH; staple (Z) 1-5) | – | – | – | > 10 | – | –
3 | CCCC[C@H](NC(=O)[C@@H]1CCCN1C(=O)CNC(=O)[C@H](CCCCN)NC(=O)[C@@H]1C/C=C\C[C@H](N)C(=O)N[C@@H](CCCNC(=N)N)C(=O)N[C@@H](CC(C)C)C(=O)N[C@@H](CO)C(=O)N1)C(=O)O | 99 | 59 | 69 | – | -13 | –
4 | C=CC[C@H](NC(=O)[C@H](CO)NC(=O)[C@H](CC(C)C)NC(=O)[C@H](CCCNC(=N)N)NC(=O)[C@@H](N)CC=C)C(=O)N[C@@H](CCCCN)C(=O)NCC(=O)N1CCC[C@H]1C(=O)N[C@@H](CCCC)C(=O)N1CCC[C@H]1C(=O)N[C@@H](Cc1ccccc1)C(=O)O | – | – | – | 0.17 | – | half-life [7]: 6 min
5 | CC(C)C[C@@H]1NC(=O)[C@H](CCCNC(=N)N)NC(=O)[C@@H](N)C/C=C\C[C@@H](C(=O)N[C@@H](CCCCN)C(=O)NCC(=O)N2CCC[C@H]2C(=O)N[C@H](Cc2cccc3ccccc23)C(=O)O)NC(=O)[C@H](CO)NC1=O | 103 | – | 70 | – | -24 | Activity (Rattus norvegicus [8]): 22%; Activity (Rattus norvegicus [9]): Active; Activity (Rattus norvegicus [10]): 22%; Emax [3]: 3%; Stability [11]: Stable; AUC [12]: 1.33 mg·min/mL
6 | CCCC[C@H](NC(=O)[C@@H]1CCCN1C(=O)CNC(=O)[C@H](CCCCN)NC(=O)[C@@H]1CC(=O)NCCCC[C@H](NC(=O)[C@H](CCCNC(=N)N)NC(=O)[C@@H]2CCC(=O)N2)C(=O)N[C@@H](CCCNC(=N)N)C(=O)N[C@@H](CC(C)C)C(=O)N[C@@H](CO)C(=O)N1)C(=O)N1CCC[C@H]1C(=O)N[C@@H](Cc1ccccc1)C(=O)O (HELM PEPTIDE1{[Glp].R.K.R.L.S.D.K.G.P.[Nle].P.F}$PEPTIDE1,PEPTIDE1,3:R3-7:R3$$$V2.0) | – | – | – | 0.039 | – | –

Second part, led by results:

Row | Emax [2] [%] | Emax ([3]; filed as agonist) [%] | Emax [4] [%] | Ki (Apelin receptor [5]) [µM] | Compound | Activity (Rattus norvegicus [6]) [mmHg] | other results
7 | 102 | 100 | 75 | – | CCCC[C@H](NC(=O)[C@@H]1CCCN1C(=O)CNC(=O)[C@H](CCCCN)NC(=O)[C@@H]1CCCC[C@H](NC(=O)[C@H](CCCNC(=N)N)NC(=O)[C@@H]2CCC(=O)N2)C(=O)N[C@@H](CCCNC(=N)N)C(=O)N[C@@H](CC(C)C)C(=O)N[C@@H](CO)C(=O)N1)C(=O)N1CCC[C@H]1C(=O)N[C@@H](Cc1ccccc1)C(=O)O | – | EC50 (Apelin receptor [1]): 0.063 µM
8 | 106 | 93 | 82 | – | CCCC[C@H](NC(=O)[C@@H]1CCCN1C(=O)CNC(=O)[C@H](CCCCN)NC(=O)[C@@H]1CCN(S(=O)(=O)c2ccccc2[N+](=O)[O-])C/C=C/C[C@H](N)C(=O)N[C@@H](CCCNC(=N)N)C(=O)N[C@@H](CC(C)C)C(=O)N[C@@H](CO)C(=O)N1)C(=O)N1CCC[C@H]1C(=O)N[C@@H](Cc1ccccc1)C(=O)O | – | –
9 | 99 | 98 | 115 | – | CCCC[C@H](NC(=O)[C@@H]1CCCN1C(=O)CNC(=O)[C@H](CCCCN)NC(=O)[C@@H]1Cc2cncn2C/C=C/C[C@H](NC(=O)[C@H](CCCNC(=N)N)NC(=O)[C@@H]2CCC(=O)N2)C(=O)N[C@@H](CCCNC(=N)N)C(=O)N[C@@H](CC(C)C)C(=O)N[C@@H](CO)C(=O)N1)C(=O)N1CCC[C@H]1C(=O)N[C@@H](Cc1ccccc1)C(=O)O | -36 | –
10 | 101 | 98 | 98 | – | CCCC[C@H](NC(=O)[C@@H]1CCCN1C(=O)CNC(=O)[C@H](CCCCN)NC(=O)[C@@H]1C/C=C\C[C@H](NC(=O)[C@H](CCCNC(=N)N)NC(=O)[C@@H]2CCC(=O)N2)C(=O)N[C@@H](CCCNC(=N)N)C(=O)N[C@@H](CC(C)C)C(=O)N[C@@H](CO)C(=O)N1)C(=O)N1CCC[C@H]1C(=O)N[C@@H](Cc1ccccc1)C(=O)O | – | –
